In series [1] the test system is 6 weeks-old male rat. The series is described as follows: Long-term repetitive oral dosing, general side effect. It is filed as in vivo. Conditions: orally once daily, 250 mg/kg per once. As for the experimental part:
Each test compounds were dissolved with an aqueous solution of trisodium phosphate, and diluted with a water for injection. The obtained drug solution was orally administrated once daily to 6 weeks-old male rat by long-term repetitive dosing at a dose of 250 mg/kg per once.

Series [2] has as its system S100β. The series is described as follows: Intracellular S100β content in secondary cultured astrocytes (ELISA). It is filed as cell-based, rat. Conditions: astrocytes treated 2 weeks, control group 2177.0±147.74. The text has this:
The 1 to 2 day-old neonatal Wistar rats (10 animals) were decapitated and sterilized their heads in ethanol. Ethanol and blood was removed in ice-cold DMEM medium (purchased from Sigma). Meningis was peeled and cortex of cerebrum was removed in ice-cold DMEM medium (purchased from Sigma) under the stereomicroscope. The cortex of cerebrum was minced with frosted glass-slides (purchased from Matsunami) to suspension in ice-cold DMEM medium (purchased from Sigma). Cell suspension was filtrated with 70 micrometer-diameter filter (falcon2350). The filtrate was centrifuged at 100×g for 3 minutes, and the pellet was re-suspended in 10% FCS (fetal calf serum)-containing DMEM medium. The washing procedure using 10% FCS-DMEM medium was repeated 3 times and cells were re-suspended in 10% FCS-DMEM medium. The obtained cell suspension was plated in 75 cm^2 flask (falcon3024) (one flask (containing 12 ml of medium) containing cells obtained from one neonatal rat), and cultured at 37° C. under an atmosphere of 5% CO2, 95% air (0 day of culture). After 2 days of culture (2 days of culture), culture media was aspirated and flask was shaken by hands to remove an unadhesive cells. The flask was washed with DMEM medium and the suspended cells ware removed. This procedure was repeated 3 times till the unadhesive cells were removed completely confirmed by microscope. Then, 10% FCS-DMEM medium was added to flask (12 ml/flask) and cultured at 37° C. under an atmosphere of 5% CO2, 95% air (medium was changed in 12 days after onset of culture).
Primary culture of Astrocytes (19 days after onset of culture, 3 flasks) was purified by the same procedure as used in cell purification in primary culture. Then, the adhesive cells were treated with 0.05% Trypsin-1 mmol/L EDTA at 37° C. till the cells were detached. The cells were suspended in 10% FCS-DMEM medium and transferred to microtube. After centrifugation at 100×g for 3 minutes, the pellet was resuspended in 10% FCS-DMEM medium. A portion of cell suspension was mixed with an equal volume of Trypan-Blue solution. The number of living cells was measured by using the Burker-Turk counting chamber under the phase-contrast microscope. Cells were suspended in 10% FCS-DMEM medium at the cell density of 2×10^5 cells/ml and cultured in 48 well culture plate (6 plates, 0.5 ml/well) at 37° C. under an atmosphere of 5% CO2, 95% air. After 24 hour cultivation, culture medium was changed to the test-compound containing medium (0.5 ml/well), and the cultivation was conducted for 2 weeks at 37° C. under an atmosphere of 5% CO2, 95% air. The change of medium was conducted on 27 days after onset of cultivation. […]
A general note: An ELISA detects its analyte on a solid surface through an enzyme-linked reagent.

Structures are written as SMILES.

On to `CCC[C@H](CCCCC(C)=O)C(=O)O` [Example 1(1), (2R)-7-oxo-2-propyloctanoic acid], for which, in series [1], the general side effect result was “does not show a general side effect”. The “intracellular content of S100β” value is given as 1489.0±37.84 ng/mg unit protein in series [2] (30 micromol/L-treated group (n=4), P<0.001 Dunnett test) and 1053.5±39.57 ng/mg unit protein in series [2] (100 micromol/L-treated group).
Consider `CCC[C@H](CCCC[C@@H](C)O)C(=O)O` [Example 1(2), (2R,7R)-7-hydroxy-2-propyloctanoic acid], for which, in series [2] (100 micromol/L-treated group), the “intracellular content of S100β” value is given as 1422.5±74.70 ng/mg unit protein.
Turning to `CCC[C@H](CCCCCCO)C(=O)O` [Example 1(4), (2R)-8-hydroxy-2-propyloctanoic acid], the general side effect entry in series [1] is reported as “does not show a general side effect”. The “intracellular content of S100β” value in series [2] (100 micromol/L-treated group) is 1192.8±58.78 ng/mg unit protein.

Values taken from patent US7579375B2, “Branched carboxylic acid compound and use thereof” (Ono Pharmaceutical Co., Ltd., priority 2003, dated 2009).
